Where no end group is shown, it is not given here.
Columns and labels:
S. Typhimurium H1-001 = details: checkerboard, TSB, 37 °C, 24 h
Description: (§1) Effects of the combination of A11 with nisin against S. Typhimurium ATCC 13311 and 10 drug-resistant S. Typhimurium and S. enterica isolates were determined by the checkerboard titration method. Briefly, 10 drug-resistant S. Typhimurium were grown to a concentration of 1 × 10^7 CFU/ml in fresh TSB. Aliquots (25 µl) of nisin (final concentrations of 0.5–16 mg/ml) and A11 (final concentrations of 0.98–250 µg/ml) were added into 96-well plates containing 50 µl of bacterial suspension and cultured at 37 °C. […] ICA is the concentration required to produce the same effect as compound A when used alone, ICB is the concentration required to produce the same effect as compound B when used alone. The CI results were interpreted as follows: a CI of less than 1 indicates synergistic effect, a CI equal to 1 indicates additive effect, and a CI of more than 1 indicates antagonistic effect.

S. Typhimurium H1-006 = details: checkerboard, TSB, 37 °C, 24 h
Description: as §1

S. Typhimurium H1-041 = details: checkerboard, TSB, 37 °C, 24 h
Description: as §1

4,5,12:i:- H2-042 [1] = details: checkerboard, TSB, 37 °C, 24 h
Description: as §1

S. Typhimurium H1-011 = details: checkerboard, TSB, 37 °C, 24 h
Description: as §1

4,5,12:i:- H2-039 = details: checkerboard, TSB, 37 °C, 24 h
Description: as §1

4,5,12:i:- H2-089 [2] = details: checkerboard, TSB, 37 °C, 24 h
Description: as §1

4,5,12:i:- H1-100 [3] = details: checkerboard, TSB, 37 °C, 24 h
Description: as §1

S. Typhimurium H1-015 = details: checkerboard, TSB, 37 °C, 24 h
Description: as §1

S. Typhimurium H1-062 = details: checkerboard, TSB, 37 °C, 24 h
Description: as §1

S. Typhimurium ATCC13311 = details: checkerboard, TSB, 37 °C, 24 h
Description: as §1

4,5,12:i:- H2-047 = format: cell-based, Salmonella enterica 4,5,12:i:-; details: strain H2-047
Text: (§2) All tests were done in triplicate.

4,5,12:i:- H2-049 = format: cell-based, Salmonella enterica 4,5,12:i:-; details: strain H2-049
Text: as §2

4,5,12:i:- H2-042 [4] = format: cell-based, Salmonella enterica 4,5,12:i:-; details: strain H2-042
Text: as §2

4,5,12:i:- H2-071 = format: cell-based, Salmonella enterica 4,5,12:i:-; details: strain H2-071
Text: as §2

4,5,12:i:- H2-089 [5] = format: cell-based, Salmonella enterica 4,5,12:i:-; details: strain H2-089
Text: as §2

4,5,12:i:- H1-024 = format: cell-based, Salmonella enterica 4,5,12:i:-; details: strain H1-024
Text: as §2

4,5,12:i:- H2-067 = format: cell-based, Salmonella enterica 4,5,12:i:-; details: strain H2-067
Text: as §2

4,5,12:i:- H1-100 [6] = format: cell-based, Salmonella enterica 4,5,12:i:-; details: strain H1-100
Text: as §2

4,5,12:i:- H2-010 = format: cell-based, Salmonella enterica 4,5,12:i:-; details: strain H2-010
Text: as §2

[7] = tested on: Pseudomonas aeruginosa ATCC 27853; format: cell-based
Text: as §2

[8] = tested on: Acinetobactero baumanii MT strain; format: cell-based
Text: as §2

[9] = tested on: Bacillus cereus ATCC 11778; format: cell-based
Text: as §2

[10] = tested on: Staphylococcus epidermidis ATCC 12228; format: cell-based
Text: as §2

[11] = tested on: Listeria monocytogenes 10403s; format: cell-based; details: 10403s
Text: as §2

[12] = tested on: Staphylococcus aureus ATCC 25923; format: cell-based
Text: as §2

For WVKKVARKVVKIGRKVAR-NH2 [A11], the “MIC (alone)” value (S. Typhimurium H1-001) was 62.5 µg/mL, the “MIC (alone)” value (S. Typhimurium H1-006) was 125 µg/mL and the “MIC (alone)” value (S. Typhimurium H1-041) was 125 µg/mL. For the same substance, the “MIC (alone)” value (4,5,12:i:- H2-042 [1]) was 62.5 µg/mL, the “MIC (alone)” value (S. Typhimurium H1-011) was 62.5 µg/mL and the “MIC (alone)” value (4,5,12:i:- H2-039) was 62.5 µg/mL. The “MIC (alone)” value (4,5,12:i:- H2-089 [2]) was 62.5 µg/mL, the “MIC (alone)” value (4,5,12:i:- H1-100 [3]) was 62.5 µg/mL and the “MIC (alone)” value (S. Typhimurium H1-015) was 62.5 µg/mL. For the same substance, the “MIC (alone)” value (S. Typhimurium H1-062) was 125 µg/mL, the “MIC (alone)” value (S. Typhimurium ATCC13311) was 15.63 µg/mL and the MBC (4,5,12:i:- H2-047) was 125 µg/mL. The MIC (4,5,12:i:- H2-047) was 62.5 µg/mL, the MBC (4,5,12:i:- H2-049) was 125 µg/mL and the MIC (4,5,12:i:- H2-049) was 62.5 µg/mL. The MBC (4,5,12:i:- H2-042 [4]) was 125 µg/mL, the MIC (4,5,12:i:- H2-042 [4]) was 62.5 µg/mL and the MBC (4,5,12:i:- H2-071) was 125 (125) µg/ml. The MIC (4,5,12:i:- H2-071) was 125 (125) µg/ml, the MBC (4,5,12:i:- H2-089 [5]) was 125 µg/mL and the MIC (4,5,12:i:- H2-089 [5]) was 62.5 µg/mL. For the same substance, the MBC (4,5,12:i:- H1-024) was 62.5 (62.5) µg/ml, the MIC (4,5,12:i:- H1-024) was 62.5 (62.5) µg/ml and the MBC (4,5,12:i:- H2-067) was 62.5 (62.5) µg/ml. For the same substance, the MIC (4,5,12:i:- H2-067) was 62.5 (62.5) µg/ml, the MBC (4,5,12:i:- H1-100 [6]) was 62.5 (62.5) µg/ml and the MIC (4,5,12:i:- H1-100 [6]) was 62.5 (62.5) µg/ml. The MBC (4,5,12:i:- H2-010) was 62.5 (62.5) µg/ml, the MIC (4,5,12:i:- H2-010) was 62.5 (62.5) µg/ml and the MBC ([7]; ATCC 27853, 18 h) was 62.5 µg/mL. For the same substance, the MIC ([7]; ATCC 27853, 24 h) was 31.25 µg/mL, the MBC ([8]; 18 h) was 31.25 µg/mL and the MIC ([8]; 24 h) was 15.63 µg/mL. For the same substance, the MBC ([9]; ATCC 11778, 18 h) was 250 (250) µg/ml, the MIC ([9]; ATCC 11778, 24 h) was 250 (250) µg/ml and the MBC ([10]; ATCC 12228, 18 h) was 31.25 µg/mL. For the same substance, the MIC ([10]; ATCC 12228, 24 h) was 15.63 µg/mL, the MBC ([11]; 18 h) was 125 (125) µg/ml and the MIC ([11]; 24 h) was 125 (125) µg/ml. For the same substance, the MBC ([12]; ATCC 25923, 18 h) was > 250 (> 250) µg/ml and the MIC ([12]; ATCC 25923, 24 h) was > 250 (> 250) µg/ml.
